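96-well plates; 48 h exposure; 5 concentrations. Endpoints by linear interpolation between flanking doses. Not reached: highest tested concentration assigned. GI50: concentration for 50% inhibition of growth.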 The source made the active and inactive calls. Cut-off read from the data, not from the text of the source: active = GI50 up to about 1.1 µM and inactive = higher.

These results are taken from ChEMBL document CHEMBL1201862, “PubChem BioAssay data set” (2004).

Test systems include SF-539; OVCAR-3; HCC 2998; M14; KM12; SF-295; UACC-62; Malme-3M; CCRF-CEM; DU-145; SK-MEL-2; RPMI-8226; A549; MDA-MB-231; IGROV-1; A498; SK-MEL-5; HT-29; MCF7; SK-MEL-28.
Holding throughout (experiment): NCI-60 cell line screen, 48 h

For `CC(C)(Cl)C(Br)CC/C(CBr)=C(/Cl)CCl.CC(C)(Cl)C(Br)CC/C(CBr)=C(\Cl)CCl` (stereo not given), the GI50 with SF-539 is 2.07 µM (inactive); in the test with OVCAR-3, 2.32 µM (inactive); in the test with HCC 2998 it was 2.86 µM (inactive); in the test with M14, 1.49 µM (inactive); with KM12 it was 2.02 µM (inactive); in the test on SF-295, > 10 µM (inactive). In addition, the GI50 with UACC-62 is 1.5 µM (inactive); with Malme-3M, 1.9 µM (inactive); with CCRF-CEM, 0.126 µM (active); in the test with DU-145, > 10 µM (inactive); in the test with SK-MEL-2 it was 2.23 µM (inactive); in the test on RPMI-8226, 1.64 µM (inactive). Besides, the GI50 is > 10 µM (inactive) in the test with A549; 1.83 µM (inactive) in the test with MDA-MB-231; 0.782 µM (active) in the test with IGROV-1; 0.1 µM (active) with A498; 1.82 µM (inactive) with SK-MEL-5; 2.06 µM (inactive) in the test on HT-29. Moreover, the GI50 with MCF7 is 2.13 µM (inactive); with SK-MEL-28, 2.11 µM (inactive).

Turning to `CC(C)(C)NC(=O)CCC1C(C(=O)NC(C)(C)C)C2(Cl)C(Cl)=C(Cl)C1(Cl)C2(Cl)Cl` (stereo not given), the GI50 in the test with SF-539, in the test on OVCAR-3, with HCC 2998, in the test on M14, with KM12 and with SF-295 was > 100 µM (inactive) each time. Also, the GI50 in the test with UACC-62, in the test with Malme-3M, in the test with CCRF-CEM, in the test with DU-145, in the test on SK-MEL-2 and with RPMI-8226 was > 100 µM (inactive) each time. In addition, the GI50 in the test on A549, in the test with MDA-MB-231, with IGROV-1, in the test with A498, with SK-MEL-5 and in the test with HT-29 was > 100 µM (inactive) each time. For the same compound, the GI50 in the test on MCF7 and with SK-MEL-28 was > 100 µM (inactive) each time.

For `O=C(/C=C1\C[C@H]2C=Nc3ccccc3C(=O)N2C1)NCCCCCNC(=O)/C=C1\C[C@H]2C=Nc3ccccc3C(=O)N2C1`, the GI50 is 19.1 µM (inactive) in the test on SF-539; 4.1 µM (inactive) with OVCAR-3; 18.5 µM (inactive) in the test with HCC 2998; 3.49 µM (inactive) in the test with M14; 17.7 µM (inactive) in the test on KM12; 18.3 µM (inactive) with SF-295. The GI50 in the test on UACC-62 was 14.7 µM (inactive); in the test on Malme-3M, 2.52 µM (inactive); with CCRF-CEM, 1.05 µM (active); in the test with DU-145, 13.5 µM (inactive); in the test with SK-MEL-2, 15.1 µM (inactive); in the test with RPMI-8226, 4.28 µM (inactive). Further, the GI50 in the test with A549 is 22.9 µM (inactive); in the test on MDA-MB-231, 16.2 µM (inactive); with IGROV-1 it was 11 µM (inactive); with A498, 19.1 µM (inactive); in the test on SK-MEL-5 it was 22.2 µM (inactive); with HT-29, 11.6 µM (inactive). The results for the GI50 in the test with MCF7 and with SK-MEL-28 were 6.97 µM (inactive) and 12.1 µM (inactive), respectively.

As for `CC1(c2cccc(Cl)c2)CC(c2cccc(Cl)c2)=C(C#N)C(=C(C#N)C#N)N1` (stereo not given), the GI50 with SF-539 was 19.1 µM (inactive); in the test with OVCAR-3, 10.3 µM (inactive); with HCC 2998 it was 15.8 µM (inactive); in the test on M14, 17.1 µM (inactive); with KM12 it was 18 µM (inactive); in the test with SF-295, 16 µM (inactive). Moreover, the GI50 was 17 µM (inactive) in the test on UACC-62; 17.1 µM (inactive) with Malme-3M; 2.92 µM (inactive) in the test with CCRF-CEM; 15.8 µM (inactive) in the test on DU-145; 21.7 µM (inactive) in the test on SK-MEL-2; 5.28 µM (inactive) with RPMI-8226. Further, the GI50 with A549 is 19.5 µM (inactive); in the test with MDA-MB-231, 22.3 µM (inactive); with IGROV-1, 16.7 µM (inactive); in the test on A498 it was 20.3 µM (inactive); in the test with SK-MEL-5, 14.6 µM (inactive); with HT-29 it was 27.4 µM (inactive). Also, the GI50 in the test with MCF7 was 20.6 µM (inactive); in the test with SK-MEL-28 it was 20.7 µM (inactive).

As for `N=C(N)SCC(=O)O`, the GI50 with SF-539, in the test with OVCAR-3, in the test on HCC 2998, in the test on M14, in the test with KM12 and with SF-295 was > 100 µM (inactive) each time. For the same compound, the GI50 in the test on UACC-62, with Malme-3M, in the test on CCRF-CEM, in the test with DU-145, in the test with SK-MEL-2 and in the test with RPMI-8226 was > 100 µM (inactive) in each case. Besides, the GI50 in the test on A549, in the test with MDA-MB-231, in the test with IGROV-1, with A498, in the test on SK-MEL-5 and in the test on HT-29 was > 100 µM (inactive) in each case. Moreover, the GI50 with MCF7 and in the test on SK-MEL-28 was > 100 µM (inactive) throughout.

As to `COn1cc(CO)c2ccccc21`, the GI50 with SF-539 is > 100 µM (inactive); in the test on OVCAR-3, 40.8 µM (inactive); with HCC 2998, 32.8 µM (inactive); with M14, > 86.9 µM (inactive); in the test on KM12, > 100 µM (inactive); in the test with SF-295, > 100 µM (inactive). In addition, the GI50 in the test on UACC-62 was 43.3 µM (inactive); in the test on Malme-3M it was 53 µM (inactive); with CCRF-CEM, 34.7 µM (inactive); with DU-145, 53.1 µM (inactive); in the test on SK-MEL-2, > 54.3 µM (inactive); in the test with RPMI-8226 it was 66.5 µM (inactive). Also, the GI50 in the test on A549 was > 62.1 µM (inactive); with MDA-MB-231, > 100 µM (inactive); in the test on IGROV-1, 22 µM (inactive); with A498, 1.82 µM (inactive); in the test on SK-MEL-5 it was 64.1 µM (inactive); in the test with HT-29, > 58.5 µM (inactive). Also, the figures for the GI50 in the test on MCF7 and with SK-MEL-28 were 52.7 µM (inactive) and > 100 µM (inactive), respectively.

On to `Cn1c(=O)c2c(nc3sc4c(n32)C(=O)c2c(O)ccc(O)c2C4=O)n(C)c1=O`, for which the GI50 was 3.44 µM (inactive) in the test on SF-539; 4.67 µM (inactive) with OVCAR-3; 4.11 µM (inactive) with HCC 2998; 2.51 µM (inactive) in the test with M14; 2.77 µM (inactive) in the test with KM12; 31.2 µM (inactive) in the test on SF-295. Further, the GI50 in the test with UACC-62 is 4.73 µM (inactive); in the test with Malme-3M, 1.06 µM (active); in the test with CCRF-CEM it was 0.305 µM (active); with DU-145 it was 11.2 µM (inactive); in the test on SK-MEL-2, 4.42 µM (inactive); with RPMI-8226, 0.298 µM (active). The GI50 was 12.7 µM (inactive) in the test on A549; 2.28 µM (inactive) in the test with MDA-MB-231; 8.02 µM (inactive) in the test on IGROV-1; 22.1 µM (inactive) in the test on A498; 2.46 µM (inactive) in the test with SK-MEL-5; 2.19 µM (inactive) in the test on HT-29. In addition, the GI50 in the test with MCF7 is 0.955 µM (active); with SK-MEL-28, 6.05 µM (inactive).
